Test results taken from US20220142983A1, “METHODS OF TREATING CANCER WITH FARNESYLTRANSFERASE INHIBITORS” (Kura Oncology, Inc., priority 2019, published 2022).

Assays:
Type in all cases: in vivo, human
[1] = tested on: newly diagnosed elderly patients with poor risk AML; test: Tipifarnib clinical study in newly diagnosed elderly patients with poor risk AML; conditions: for PFS: N=34
Method: (§1) Clinical studies with tipifarnib were performed in newly diagnosed elderly patients with poor risk AML or relapsed and refractory AML. In these studies, patient selection was not based on genetic markers. Anecdotal evidence of tipifarnib single agent activity was reported.
Patient subset—available AML marrow samples with NRAS WT or unknown, N=27 (NCBI GEO, GSE8970).
Since achievement of CR is the main driver of clinical benefit in AML, additional screenings were conducted to differentiate the CR responses vs HI/SD responses in the higher RHOE expression levels subset of FIG. 3A (replicated in FIG. 4A).
Another screening conducted to differentiate the CR responses and HI/SD responses from PD responses was based on both RHOE expression levels and RHOA expression levels of the subjects shown in FIG. 3A (replicated in FIG. 5). RHOA mRNA expression data was generated by RNASeq and expressed as RNA Seq V2 RSEM.
The mRNA expression profiling data from the clinical study with newly diagnosed elderly patients with poor risk AML were also analyzed for CXCR3, CXCL12, and RHOE. Patient subset—available AML marrow samples with NRAS WT, unknown, N-12, N12/N13, or N61 (1,2); N=34. […] Probe 207681 used for CXCR3 in the GPL96 Affimetrix microarray. The combination of the CXCR3 expression levels and CXC12 expression levels of newly-diagnosed elderly, frail AML patients, also correlated with treatment response. In particular, the product (multiplication) of the CXCR3 (“receptor”) expression levels and the CXCL12 (“ligand”) expression levels further differentiated the CR and HI/SD responses from the PD responses in the AML patients treated with tipifarnib. […] PFS in the high CXCL12×CXCR3 product subset was 433 days vs. 64 days in the low expressing product subset (HR=0.24, p=0.005, N=34).

[2] = tested on: relapsed and refractory AML patients; test: Tipifarnib clinical study in relapsed and refractory AML patients
Method: as §1

[3] = tested on: relapsed/refractory CMML patients; test: Tipifarnib clinical study in relapsed/refractory CMML patients
Method: Clinical studies with tipifarnib were performed in relapsed/refractory CMML patients (N=20) receiving tipifarnib as a single agent orally, twice a day (bid) for 7 days in alternating weeks (Days 1-7 and 15-21) in 28 day cycles. Eligible patients received tipifarnib administered at a starting dose of 1200 mg or 900 mg, orally with food, bid for 7 days in alternating weeks (Days 1-7 and 15-21) in 28 day cycles. Stepwise 300 mg dose reductions to control treatment-related, treatment-emergent toxicities were allowed.
Inclusion Criteria for this clinical study include: (a) diagnosis of CMML as defined by the World Health Organization (WHO) criteria; (b) Eastern Cooperative Oncology Group (ECOG) performance status 0 or 1; (c) subject is willing and able to comply with scheduled visits, treatment plans, laboratory tests and other procedures (including bone marrow assessments); (d) at least 1 week since the last systemic therapy regimen prior to Cycle 1 Day 1, subjects on a stable dose of hydroxyurea for at least 2 weeks prior to Cycle 1 Day 1 may continue on hydroxyurea until Cycle 1 Day 7, and subjects must have recovered to NCI CTCAE v. […] Both females and male subjects with female partners of child-bearing potential must agree to use an adequate method of contraception for 2 weeks prior to screening, during, and at least 4 weeks after last dose of study medication. Female subjects must have a negative serum or urine pregnancy test within 72 hours prior to start of study medication. Not breast feeding at any time during the study; and (h) written and voluntary informed consent understood, signed and dated. […]

[4] = higher pre-treatment CXCL12xCXCR3 product levels (20,000 or more) (FIG. 7)
[5] = lower RHOE expression levels (FIG. 3A)
[6] = lower pre-treatment CXCL12xCXCR3 product levels (less than 20,000) (FIG. 7)

## Cn1cncc1[C@@](N)(c1ccc(Cl)cc1)c1ccc2c(c1)c(-c1cccc(Cl)c1)cc(=O)n2C [tipifarnib]
[1]; CXCR3 expression levels in the first quartile (FIG. 9)
  median progression free survival: about 10 days
[1]; CXCR3 expression levels in the fourth quartile, p=0.0004 (FIG. 9)
  median progression free survival: 406 days
[1]; CXCR3 expression levels in the second quartile (FIG. 9)
  median progression free survival: about 70 days
[1]; CXCR3 expression levels in the third quartile (FIG. 9)
  median progression free survival: 248 days
[1]; RND3 expression levels greater than or equal to 144 (higher RHOE) (FIG. 3B)
  median progression free survival: 8.2 months
[1]; RND3 expression levels less than 144 (lower RHOE) (FIG. 3B)
  median progression free survival: 2.2 months
[1]; high CXCL12xCXCR3 product subset
  PFS: 433 days
[1]; higher RHOE expression levels (FIG. 3A)
  PD responses: 1 out of 14
[1]; [4]
  CR responses: 8 out of 14 subjects
  PD responses: 0 out of 14
  SD/HI responses: 6 out of 14 subjects
[1]; low expressing CXCL12xCXCR3 product subset
  PFS: 64 days
[1]; [5]
  CR responses: 0 out of 13 subjects
  PD responses: 7 out of 13 subjects
[1]; [6]
  CR responses: 1 out of 20 subjects
  PD responses: 13 out of 20 subjects
  SD/HI responses: 6 out of 20 subjects
[1]; p=0.005, N=34
  HR (PFS, high vs low CXCL12xCXCR3 product subset): 0.24
[1]; treatment naive elderly, frail AML patients with higher RHOE expression levels (FIG. 3A)
  CR responses: 8 out of 14 subjects
[2]; CXCR3 expression levels in the first tertiale, N=58 (FIG. 10)
  mPFS percentage: 54 days
[2]; CXCR3 expression levels in the second tertiale, N=58 (FIG. 10)
  mPFS percentage: 75 days
[2]; CXCR3 expression levels in the third tertiale, N=58, p=0.009 (FIG. 10)
  mPFS percentage: 182 days
[3]; tertiale 1 (lowest PRICKLE2 expression), tipifarnib single agent (FIG. 11)
  median Time to Treatment Failure (TTF): 99 days
[3]; tertiale 2 of PRICKLE2 expression, tipifarnib single agent (FIG. 11)
  median Time to Treatment Failure (TTF): 84 days
[3]; tertiale 3 (highest PRICKLE2 expression), tipifarnib single agent, p=0.047 vs tertiale 1 (FIG. 11)
  median Time to Treatment Failure (TTF): 288 days
